The values that follow come from patent US20260365682A1, “MODULATORS OF TNF-ALPHA ACTIVITY” (Forward Therapeutics, Inc., priority 2022, published 2026).

This assay concerns the target T1, TNF-α (Homo sapiens, UniProt P01375).
T1 construct: purchased R&D 210-TA-020/CF
The assay is described as follows: TNF-α Induced HEK Blue Cellular Assay (secreted alkaline phosphatase expression, QUANTI-Blue). The assay is classed as cell-based. As to conditions: HEK Blue TNFα reporter cells; TNF-α 100 μg/ml; 24 hrs at 37° C.; inhibition of secreted alkaline phosphatase; read-out: IC50 value. The method, then:
TNF-α Induced HEK Blue Cellular Assay
Test articles were diluted in DMSO and serially diluted into 384 well assay plate (Corning 3765), at final concentrations ranging from […] to 0.5 nM. HEK Blue™ TNFα reporter cells were added at a final density of 10,000 cell per well in assay media [DMEM (Gibco, cat #21063-029), 10% fetal bovine serum (ExcelBio, cat #FND500), 1% Penicillin-Streptomycin (Solarbio, cat #P1400-100]. TNF-α (R&D 210-TA-020/CF) was then added to the assay plate at a final concentration of […]. This plate was then incubated for 24 hrs at 37° C. and 5% CO2. Secreted alkaline phosphatase expression was then measured using QUANTI-Blue™ (Invivogen), according to manufacturer instructions and read on an Envision microplate reader at 620 nm.
Inhibition data for test compound over a range of concentration was plotted as percentage inhibition of the test compound (100%=maximum inhibition). IC50 values were determined after correcting for background [(sample read-mean of low control)/(mean of high control-mean of low control)] whereby the low control is DMSO without stimulation and high control is DMSO with stimulation. The IC50 is defined as the concentration of test compound which produces 50% inhibition and was quantified using the 4 parameter logistic equation to fit the data.

T1 sequence (P01375 77-233 limits assumed): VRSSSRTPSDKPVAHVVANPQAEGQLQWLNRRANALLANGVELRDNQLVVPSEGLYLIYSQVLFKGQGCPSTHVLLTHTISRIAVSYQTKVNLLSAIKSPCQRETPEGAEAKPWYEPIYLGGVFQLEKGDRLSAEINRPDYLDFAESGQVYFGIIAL

`[2H]C([2H])([2H])N1C(=O)c2cccc(OC(F)F)c2[C@H]2C[C@@H]1c1nc3ccc(C#CCCC4CC4)cc3n12` (single isomer, unassigned) [Example 137]: the half-maximal inhibitory concentration (IC50) was below 100 nM.

As for `[2H]C([2H])([2H])N1C(=O)c2cccc(OC(F)F)c2[C@H]2C[C@@H]1c1nc3ccc(C#CCC(C)O)cc3n12` (single isomer, unassigned) [Example 139, (7R,14R)-1-(difluoromethoxy)-11-((R or S)-4-hydroxypent-1-yn-1-yl)-6-(methyl-d3)-6,7-dihydro-7,14-methanobenzo[f]benzo[4,5]imidazo[1,2-a][1,4]diazocin-5(14H)-one], the IC50 is below 100 nM. Regarding `[2H]C([2H])([2H])N1C(=O)c2cccc(OC(F)F)c2[C@H]2C[C@@H]1c1nc3ccc(C#CCC(C)O)cc3n12` (single isomer, unassigned) [Example 140, (7R,14R)-1-(difluoromethoxy)-11-((S or R)-4-hydroxypent-1-yn-1-yl)-6-(methyl-d3)-6,7-dihydro-7,14-methanobenzo[f]benzo[4,5]imidazo[1,2-a][1,4]diazocin-5(14H)-one], the IC50 was below 100 nM. The figure for `[2H]C([2H])([2H])N1C(=O)c2cccc(OC(F)F)c2[C@H]2C[C@@H]1c1nc3ccc(C#CCC(C)OC)cc3n12` (single isomer, unassigned) [Example 148, (7R,14R)-1-(difluoromethoxy)-11-((R or S)-4-methoxypent-1-yn-1-yl)-6-(methyl-d3)-6,7-dihydro-7,14-methanobenzo[f]benzo[4,5]imidazo[1,2-a][1,4]diazocin-5(14H)-one] is below 100 nM; for `[2H]C([2H])([2H])N1C(=O)c2cccc(OC(F)F)c2[C@H]2C[C@@H]1c1nc3ccc(C#CCC(C)OC)cc3n12` (single isomer, unassigned) [Example 149, (7R,14R)-1-(difluoromethoxy)-11-((S or R)-4-methoxypent-1-yn-1-yl)-6-(methyl-d3)-6,7-dihydro-7,14-methanobenzo[f]benzo[4,5]imidazo[1,2-a][1,4]diazocin-5(14H)-one] it is below 100 nM; for `[2H]C([2H])([2H])N1C(=O)c2cccc(OC(F)F)c2[C@H]2C[C@@H]1c1nc3ccc(C#CC(O)C(F)(F)F)cc3n12` (single isomer, unassigned) [Example 199, (7R,14R)-1-(difluoromethoxy)-6-(methyl-d3)-11-((R or S)-4,4,4-trifluoro-3-hydroxybut-1-yn-1-yl)-6,7-dihydro-7,14-methanobenzo[f]benzo[4,5]imidazo[1,2-a][1,4]diazocin-5(14H)-one] it is 100 to 1000 nM.

With `[2H]C([2H])([2H])N1C(=O)c2cccc(OC(F)F)c2[C@H]2C[C@@H]1c1nc3ccc(C#CC(O)C(F)(F)F)cc3n12` (single isomer, unassigned) [Example 200, (7R,14R)-1-(difluoromethoxy)-6-(methyl-d3)-11-((S or R)-4,4,4-trifluoro-3-hydroxybut-1-yn-1-yl)-6,7-dihydro-7,14-methanobenzo[f]benzo[4,5]imidazo[1,2-a][1,4]diazocin-5(14H)-one], the IC50 was 100 to 1000 nM. In the case of `[2H]C([2H])([2H])N1C(=O)c2cccc(OC(F)F)c2[C@H]2C[C@@H]1c1nc3ccc(C#CC(O)CC)cc3n12` (single isomer, unassigned) [Example 208, (7R,14R)-1-(difluoromethoxy)-11-((R or S)-3-hydroxypent-1-yn-1-yl)-6-(methyl-d3)-6,7-dihydro-7,14-methanobenzo[f]benzo[4,5]imidazo[1,2-a][1,4]diazocin-5(14H)-one], the IC50 was in the range of 10000 to 30000 nM. On to `[2H]C([2H])([2H])N1C(=O)c2cccc(OC(F)F)c2[C@H]2C[C@@H]1c1nc3ccc(C#CC(O)CC)cc3n12` (single isomer, unassigned) [Example 209, (7R,14R)-1-(difluoromethoxy)-11-((S or R)-3-hydroxypent-1-yn-1-yl)-6-(methyl-d3)-6,7-dihydro-7,14-methanobenzo[f]benzo[4,5]imidazo[1,2-a][1,4]diazocin-5(14H)-one], for which the IC50 lay in the range of 10000 to 30000 nM. As to `[2H]C([2H])([2H])N1C(=O)c2cccc(OC(F)F)c2[C@H]2C[C@@H]1c1nc3ccc(C#CC(N)CC(C)(C)O)cc3n12` (single isomer, unassigned) [Example 216, (7R,14R)-11-((S or R)-3-amino-5-hydroxy-5-methylhex-1-yn-1-yl)-1-(difluoromethoxy)-6-(methyl-d3)-6,7-dihydro-7,14-methanobenzo[f]benzo[4,5]imidazo[1,2-a][1,4]diazocin-5(14H)-one], the IC50 was in the range of 10000 to 30000 nM. As for `[2H]C([2H])([2H])N1C(=O)c2cccc(OC(F)F)c2[C@H]2C[C@@H]1c1nc3ccc(C#CC(N)CC(C)(C)O)cc3n12` (single isomer, unassigned) [Example 217, (7R,14R)-11-((R or S)-3-amino-5-hydroxy-5-methylhex-1-yn-1-yl)-1-(difluoromethoxy)-6-(methyl-d3)-6,7-dihydro-7,14-methanobenzo[f]benzo[4,5]imidazo[1,2-a][1,4]diazocin-5(14H)-one], the IC50 lay within 10000 to 30000 nM. Consider `[2H]C([2H])([2H])N1C(=O)c2cccc(OC(F)F)c2[C@H]2C[C@@H]1c1nc3ccc(C#CC(O)CC(C)(C)O)cc3n12` (single isomer, unassigned) [Example 221, (7R,14R)-1-(difluoromethoxy)-11-((S or R)-3,5-dihydroxy-5-methylhex-1-yn-1-yl)-6-(methyl-d3)-6,7-dihydro-7,14-methanobenzo[f]benzo[4,5]imidazo[1,2-a][1,4]diazocin-5(14H)-one], for which the IC50 fell in the range of 100 to 1000 nM. With `[2H]C([2H])([2H])N1C(=O)c2cccc(OC(F)F)c2[C@H]2C[C@@H]1c1nc3ccc(C#CC(O)CC(C)(C)O)cc3n12` (single isomer, unassigned) [Example 222, (7R,14R)-1-(difluoromethoxy)-11-((R or S)-3,5-dihydroxy-5-methylhex-1-yn-1-yl)-6-(methyl-d3)-6,7-dihydro-7,14-methanobenzo[f]benzo[4,5]imidazo[1,2-a][1,4]diazocin-5(14H)-one], the IC50 was below 100 nM. The figure for `[2H]C([2H])([2H])N1C(=O)c2cccc(OC(F)F)c2[C@H]2C[C@@H]1c1nc3ccc(C#CC(C)CCO)cc3n12` (single isomer, unassigned) [Example 239, (7R,14R)-1-(difluoromethoxy)-11-((S or R)-5-hydroxy-3-methylpent-1-yn-1-yl)-6-(methyl-d3)-6,7-dihydro-7,14-methanobenzo[f]benzo[4,5]imidazo[1,2-a][1,4]diazocin-5(14H)-one] is below 100 nM. Consider `[2H]C([2H])([2H])N1C(=O)c2cccc(OC(F)F)c2[C@H]2C[C@@H]1c1nc3ccc(C#CC(C)CCO)cc3n12` (single isomer, unassigned) [Example 240, (7R,14R)-1-(difluoromethoxy)-11-((R or S)-5-hydroxy-3-methylpent-1-yn-1-yl)-6-(methyl-d3)-6,7-dihydro-7,14-methanobenzo[f]benzo[4,5]imidazo[1,2-a][1,4]diazocin-5(14H)-one], for which the IC50 was below 100 nM. For `[2H]C([2H])([2H])N1C(=O)c2cccc(OC(F)F)c2[C@H]2C[C@@H]1c1nc3ccc(C#CCC(O)C(C)O)cc3n12` (single isomer, unassigned) [Example 243, (7R,14R)-1-(difluoromethoxy)-11-((4R or 4S,5S or 5R)-4,5-dihydroxyhex-1-yn-1-yl)-6-(methyl-d3)-6,7-dihydro-7,14-methanobenzo[f]benzo[4,5]imidazo[1,2-a][1,4]diazocin-5(14H)-one], the IC50 is below 100 nM.

Consider `[2H]C([2H])([2H])N1C(=O)c2cccc(OC(F)F)c2[C@H]2C[C@@H]1c1nc3ccc(C#CCC(O)C(C)O)cc3n12` (single isomer, unassigned) [Example 244, (7R,14R)-1-(difluoromethoxy)-11-((4S or 4S,5R or 5S)-4,5-dihydroxyhex-1-yn-1-yl)-6-(methyl-d3)-6,7-dihydro-7,14-methanobenzo[f]benzo[4,5]imidazo[1,2-a][1,4]diazocin-5(14H)-one], for which the IC50 is below 100 nM. The figure for `[2H]C([2H])([2H])N1C(=O)c2cccc(OC(F)F)c2[C@H]2C[C@@H]1c1nc3ccc(C#CCC(O)C(C)O)cc3n12` (single isomer, unassigned) [Example 245, (7R,14R)-1-(difluoromethoxy)-11-((4S or 4R,5S or 5R)-4,5-dihydroxyhex-1-yn-1-yl)-6-(methyl-d3)-6,7-dihydro-7,14-methanobenzo[f]benzo[4,5]imidazo[1,2-a][1,4]diazocin-5(14H)-one] is below 100 nM; for `[2H]C([2H])([2H])N1C(=O)c2cccc(OC(F)F)c2[C@H]2C[C@@H]1c1nc3ccc(C#CCC(O)C(C)O)cc3n12` (single isomer, unassigned) [Example 246, (7R,14R)-1-(difluoromethoxy)-11-((4R or 4S,5R or 5S)-4,5-dihydroxyhex-1-yn-1-yl)-6-(methyl-d3)-6,7-dihydro-7,14-methanobenzo[f]benzo[4,5]imidazo[1,2-a][1,4]diazocin-5(14H)-one] it is below 100 nM.

A word on the IC50: it is the point on the concentration scale where inhibition reaches its midpoint.
